Results on six molecules are retold here after US10231954B2, “Neurodegenerative therapies” (LYTIX BIOPHARMA AS, priority 2014, dated 2019).

Structures are written as SMILES. Like-named read-outs stand apart in the source and are kept apart here.

Holding throughout (type): biochemical
In assay [1] the target is MKK1 (Homo sapiens, UniProt Q02750). As to the kind of experiment: Kinase profiling MKK1. As to conditions: for remaining activity at 100 µM: read-out: residual kinase activity, MKK1. The source says:
(§1) Any value less that 25 is considered to be highly significant inhibition.

The target of assay [2] is T1, TAK1 (Homo sapiens, UniProt O43318).
T1 sequence (O43318 1-303 limits assumed): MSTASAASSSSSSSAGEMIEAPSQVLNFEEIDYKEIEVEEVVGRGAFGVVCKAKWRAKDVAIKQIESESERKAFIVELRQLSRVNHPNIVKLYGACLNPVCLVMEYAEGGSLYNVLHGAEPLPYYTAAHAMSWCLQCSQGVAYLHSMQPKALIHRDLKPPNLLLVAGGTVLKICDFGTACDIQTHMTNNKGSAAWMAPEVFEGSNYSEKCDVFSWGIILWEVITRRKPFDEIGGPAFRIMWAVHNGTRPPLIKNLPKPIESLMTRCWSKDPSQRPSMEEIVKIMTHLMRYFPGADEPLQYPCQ
T1 sequence (Q15750 437-504 partner limits assumed): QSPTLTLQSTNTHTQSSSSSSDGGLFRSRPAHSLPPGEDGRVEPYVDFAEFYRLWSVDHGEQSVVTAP
As to the kind of experiment: Kinase profiling TAK1. Conditions: read-out: residual kinase activity, TAK1.
Source text: as §1

Assay [3] has as its target ERK2 (Homo sapiens, UniProt P28482). As to the kind of experiment: Kinase profiling ERK2. As to conditions: for remaining activity at 100 µM: read-out: residual kinase activity, ERK2.
Source text: as §1

Assay [4] addresses CHK2 (Homo sapiens, UniProt O96017). As to the kind of experiment: Kinase profiling CHK2. As to conditions: read-out: residual kinase activity, CHK2.
Source text: as §1

Assay [5] has as its target JAK2 (Homo sapiens, UniProt O60674). As to the kind of experiment: Kinase profiling JAK2. Conditions: read-out: residual kinase activity, JAK2.
Source text: as §1

Assay [6] deals with TrkA (Homo sapiens, UniProt P04629). Nature of the assay: Kinase profiling TrkA. As to conditions: read-out: residual kinase activity, TrkA.
Chain of TrkA (P04629 33-796, species assumed): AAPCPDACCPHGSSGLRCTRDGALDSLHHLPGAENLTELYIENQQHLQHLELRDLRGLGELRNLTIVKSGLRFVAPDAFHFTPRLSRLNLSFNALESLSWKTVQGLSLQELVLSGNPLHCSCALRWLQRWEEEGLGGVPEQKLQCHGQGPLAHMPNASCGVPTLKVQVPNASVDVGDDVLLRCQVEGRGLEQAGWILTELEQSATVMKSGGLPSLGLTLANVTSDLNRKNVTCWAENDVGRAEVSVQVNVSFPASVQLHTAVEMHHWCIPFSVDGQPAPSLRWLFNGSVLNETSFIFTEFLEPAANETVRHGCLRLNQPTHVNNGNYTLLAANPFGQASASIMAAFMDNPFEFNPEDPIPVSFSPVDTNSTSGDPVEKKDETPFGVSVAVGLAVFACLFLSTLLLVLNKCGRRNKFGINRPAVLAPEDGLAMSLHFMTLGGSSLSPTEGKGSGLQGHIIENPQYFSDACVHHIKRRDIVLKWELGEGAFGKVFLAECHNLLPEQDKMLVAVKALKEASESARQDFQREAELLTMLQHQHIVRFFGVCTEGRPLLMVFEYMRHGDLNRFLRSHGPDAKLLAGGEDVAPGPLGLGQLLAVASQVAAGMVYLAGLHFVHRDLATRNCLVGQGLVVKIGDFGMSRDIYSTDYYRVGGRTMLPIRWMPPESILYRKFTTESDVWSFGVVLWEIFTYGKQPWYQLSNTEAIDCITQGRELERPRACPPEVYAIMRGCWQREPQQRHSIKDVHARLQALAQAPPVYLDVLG
Source text: as §1

Assay [7] deals with T2, PKD1 (Homo sapiens, UniProt Q15139).
T2 sequence (Q15139 1-912): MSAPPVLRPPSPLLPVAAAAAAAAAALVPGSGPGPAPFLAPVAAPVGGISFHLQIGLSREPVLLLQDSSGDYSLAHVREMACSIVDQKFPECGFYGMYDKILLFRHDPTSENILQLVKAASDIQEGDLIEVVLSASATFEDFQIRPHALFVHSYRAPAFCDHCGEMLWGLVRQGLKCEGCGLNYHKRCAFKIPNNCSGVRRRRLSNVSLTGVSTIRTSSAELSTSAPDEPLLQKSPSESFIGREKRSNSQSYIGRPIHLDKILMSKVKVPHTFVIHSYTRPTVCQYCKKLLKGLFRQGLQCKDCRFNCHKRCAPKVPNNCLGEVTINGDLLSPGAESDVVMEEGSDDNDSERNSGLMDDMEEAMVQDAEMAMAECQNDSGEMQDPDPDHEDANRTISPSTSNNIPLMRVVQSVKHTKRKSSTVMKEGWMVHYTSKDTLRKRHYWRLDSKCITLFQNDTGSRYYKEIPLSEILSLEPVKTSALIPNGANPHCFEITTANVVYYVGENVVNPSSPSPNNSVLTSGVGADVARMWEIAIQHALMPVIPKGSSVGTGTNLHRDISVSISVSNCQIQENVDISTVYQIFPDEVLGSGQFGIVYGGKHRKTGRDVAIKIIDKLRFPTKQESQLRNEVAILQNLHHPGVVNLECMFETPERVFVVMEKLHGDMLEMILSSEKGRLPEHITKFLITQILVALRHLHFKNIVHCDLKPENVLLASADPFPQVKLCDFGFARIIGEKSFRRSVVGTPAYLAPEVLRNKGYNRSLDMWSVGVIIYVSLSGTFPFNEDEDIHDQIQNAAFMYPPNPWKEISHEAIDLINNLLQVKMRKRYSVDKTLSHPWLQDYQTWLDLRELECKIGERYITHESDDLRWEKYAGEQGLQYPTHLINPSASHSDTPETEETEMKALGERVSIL
As to the kind of experiment: Kinase profiling PKD1. As to conditions: for remaining activity at 100 µM: read-out: residual kinase activity, PKD1.
Source text: as §1

The target of assay [8] is T3, p38g MAPK (Homo sapiens, UniProt P53778).
T3 sequence (P53778 1-367): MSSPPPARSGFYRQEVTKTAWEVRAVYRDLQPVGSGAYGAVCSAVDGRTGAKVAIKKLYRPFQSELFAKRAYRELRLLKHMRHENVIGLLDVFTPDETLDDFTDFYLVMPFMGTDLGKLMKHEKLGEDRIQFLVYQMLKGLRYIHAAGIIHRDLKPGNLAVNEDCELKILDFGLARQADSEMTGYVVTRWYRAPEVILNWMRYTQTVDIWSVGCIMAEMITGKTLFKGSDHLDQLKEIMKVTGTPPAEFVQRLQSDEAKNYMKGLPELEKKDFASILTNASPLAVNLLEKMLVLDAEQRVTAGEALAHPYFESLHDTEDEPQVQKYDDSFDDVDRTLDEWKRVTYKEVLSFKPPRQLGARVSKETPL
Nature of the assay: Kinase profiling p38g MAPK. Conditions: for remaining activity at 100 µM: read-out: residual kinase activity, p38g MAPK.
Source text: as §1

In assay [9] the target is EF2K (Homo sapiens, UniProt O00418). Nature of the assay: Kinase profiling EF2K. Conditions: read-out: residual kinase activity, EF2K.
Source text: as §1

Assay [10] concerns the target JNK3 (Homo sapiens, UniProt P53779). As to the kind of experiment: Kinase profiling JNK3. As to conditions: for remaining activity at 100 µM: read-out: residual kinase activity, JNK3.
Source text: as §1

Assay [11] addresses DYRK1A (Homo sapiens, UniProt Q13627). As to the kind of experiment: DYRK 1A assay (kinase profiling). Conditions: read-out: residual kinase activity, DYRK1A. The method, then:
Assays are stopped by addition of 5 μl of 0.5 M (3%) orthophosphoric acid and then harvested onto P81 Unifilter plates with a wash buffer of 50 mM orthophosphoric acid.
as §1

The target of assay [12] is STK33 (Homo sapiens, UniProt Q9BYT3). As to the kind of experiment: Kinase profiling STK33. As to conditions: for remaining activity at 100 µM: read-out: residual kinase activity, STK33.
Chain of STK33 (Q9BYT3 whole entry, species assumed): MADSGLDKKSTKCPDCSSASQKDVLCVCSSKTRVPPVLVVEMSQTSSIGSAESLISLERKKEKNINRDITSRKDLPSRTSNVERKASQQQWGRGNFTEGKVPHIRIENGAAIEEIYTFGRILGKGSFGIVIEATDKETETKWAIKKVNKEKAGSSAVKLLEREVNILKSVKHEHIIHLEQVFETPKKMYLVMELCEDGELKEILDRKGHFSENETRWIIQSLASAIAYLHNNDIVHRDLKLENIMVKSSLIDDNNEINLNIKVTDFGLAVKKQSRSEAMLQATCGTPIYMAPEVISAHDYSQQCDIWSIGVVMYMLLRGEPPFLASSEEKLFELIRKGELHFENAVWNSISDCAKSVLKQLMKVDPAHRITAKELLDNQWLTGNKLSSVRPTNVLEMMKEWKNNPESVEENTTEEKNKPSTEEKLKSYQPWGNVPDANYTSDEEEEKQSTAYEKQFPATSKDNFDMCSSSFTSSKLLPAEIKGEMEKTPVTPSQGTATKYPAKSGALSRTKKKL
Source text: as §1

The target in assay [13] is T4, SGK1 (Homo sapiens, UniProt O00141).
T4 sequence (O00141 1-431): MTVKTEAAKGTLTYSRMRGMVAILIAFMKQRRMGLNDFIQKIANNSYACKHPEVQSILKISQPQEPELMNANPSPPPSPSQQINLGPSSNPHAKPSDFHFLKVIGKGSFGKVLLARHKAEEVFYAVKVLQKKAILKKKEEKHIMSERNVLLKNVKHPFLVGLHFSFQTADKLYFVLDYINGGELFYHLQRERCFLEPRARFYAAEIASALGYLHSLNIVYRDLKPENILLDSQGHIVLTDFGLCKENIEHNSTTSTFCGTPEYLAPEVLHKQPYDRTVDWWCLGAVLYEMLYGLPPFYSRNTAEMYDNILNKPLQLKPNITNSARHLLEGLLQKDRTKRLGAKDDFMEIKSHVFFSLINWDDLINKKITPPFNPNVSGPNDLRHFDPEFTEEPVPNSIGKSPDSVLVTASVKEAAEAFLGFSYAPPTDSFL
As to the kind of experiment: Kinase profiling SGK1. Conditions: for remaining activity at 100 µM: read-out: residual kinase activity, SGK1.
Source text: as §1

Assay [14] concerns the target HIPK2 (Homo sapiens, UniProt Q9H2X6). Nature of the assay: Kinase profiling HIPK2. Conditions: read-out: residual kinase activity, HIPK2.
Source text: as §1

The subject of assay [15] is VEG-FR. As to the kind of experiment: Kinase profiling VEG-FR. Conditions: 100 micromolar inhibitor concentration; 100 is no change.
Source text: as §1

Setting [16] is: 100 micromolar inhibitor concentration, 100 is no change.

Chain of ERK2 (P28482 whole entry, species assumed): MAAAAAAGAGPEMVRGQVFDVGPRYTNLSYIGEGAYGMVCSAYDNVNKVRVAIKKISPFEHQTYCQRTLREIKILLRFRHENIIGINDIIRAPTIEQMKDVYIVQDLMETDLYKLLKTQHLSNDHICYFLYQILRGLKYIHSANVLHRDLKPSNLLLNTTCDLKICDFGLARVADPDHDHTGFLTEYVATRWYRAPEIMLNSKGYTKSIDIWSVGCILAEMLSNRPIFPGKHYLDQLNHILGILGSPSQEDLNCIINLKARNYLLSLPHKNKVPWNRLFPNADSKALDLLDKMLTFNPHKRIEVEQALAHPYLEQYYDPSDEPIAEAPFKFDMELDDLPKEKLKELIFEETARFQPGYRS
Chain of JAK2 (O60674 whole entry, species assumed): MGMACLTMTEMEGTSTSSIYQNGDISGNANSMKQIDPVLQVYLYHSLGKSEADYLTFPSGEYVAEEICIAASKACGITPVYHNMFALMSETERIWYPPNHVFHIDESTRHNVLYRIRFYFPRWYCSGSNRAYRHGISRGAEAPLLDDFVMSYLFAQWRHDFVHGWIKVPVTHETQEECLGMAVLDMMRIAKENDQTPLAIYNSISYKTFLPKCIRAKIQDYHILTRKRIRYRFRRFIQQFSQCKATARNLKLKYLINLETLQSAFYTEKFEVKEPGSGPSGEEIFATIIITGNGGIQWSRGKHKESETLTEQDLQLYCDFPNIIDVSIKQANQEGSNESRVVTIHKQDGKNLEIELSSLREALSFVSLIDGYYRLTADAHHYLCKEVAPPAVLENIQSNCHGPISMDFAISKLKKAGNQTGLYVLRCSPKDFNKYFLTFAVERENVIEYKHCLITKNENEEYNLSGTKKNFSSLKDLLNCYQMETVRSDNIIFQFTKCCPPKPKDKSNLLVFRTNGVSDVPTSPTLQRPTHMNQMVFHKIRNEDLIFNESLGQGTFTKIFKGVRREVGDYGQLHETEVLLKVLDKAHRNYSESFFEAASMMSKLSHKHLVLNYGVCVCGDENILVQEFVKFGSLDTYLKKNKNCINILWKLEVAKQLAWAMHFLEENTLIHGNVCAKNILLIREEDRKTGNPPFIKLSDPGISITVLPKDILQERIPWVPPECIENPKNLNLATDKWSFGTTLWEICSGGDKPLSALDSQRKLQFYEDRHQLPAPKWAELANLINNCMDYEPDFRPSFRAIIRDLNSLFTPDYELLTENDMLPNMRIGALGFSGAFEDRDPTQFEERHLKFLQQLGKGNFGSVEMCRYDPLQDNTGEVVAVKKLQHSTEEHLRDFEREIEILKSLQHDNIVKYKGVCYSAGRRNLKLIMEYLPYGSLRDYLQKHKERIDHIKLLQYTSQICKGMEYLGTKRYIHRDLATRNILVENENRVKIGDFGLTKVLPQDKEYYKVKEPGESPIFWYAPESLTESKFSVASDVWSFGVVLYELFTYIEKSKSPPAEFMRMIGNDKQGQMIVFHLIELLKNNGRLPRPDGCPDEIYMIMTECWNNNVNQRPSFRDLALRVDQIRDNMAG
Chain of MKK1 (Q02750 whole entry, species assumed): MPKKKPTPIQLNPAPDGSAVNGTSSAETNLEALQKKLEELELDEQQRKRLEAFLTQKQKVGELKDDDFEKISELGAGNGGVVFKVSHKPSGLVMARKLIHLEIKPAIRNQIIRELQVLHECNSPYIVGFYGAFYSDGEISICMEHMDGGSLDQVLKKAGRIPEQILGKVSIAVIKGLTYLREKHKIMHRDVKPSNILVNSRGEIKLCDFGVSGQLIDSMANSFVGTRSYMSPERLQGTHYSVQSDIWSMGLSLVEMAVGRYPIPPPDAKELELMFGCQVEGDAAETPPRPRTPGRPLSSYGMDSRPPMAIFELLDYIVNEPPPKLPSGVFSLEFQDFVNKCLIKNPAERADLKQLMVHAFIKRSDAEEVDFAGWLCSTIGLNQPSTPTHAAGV
Chain of HIPK2 (Q9H2X6 whole entry, species assumed): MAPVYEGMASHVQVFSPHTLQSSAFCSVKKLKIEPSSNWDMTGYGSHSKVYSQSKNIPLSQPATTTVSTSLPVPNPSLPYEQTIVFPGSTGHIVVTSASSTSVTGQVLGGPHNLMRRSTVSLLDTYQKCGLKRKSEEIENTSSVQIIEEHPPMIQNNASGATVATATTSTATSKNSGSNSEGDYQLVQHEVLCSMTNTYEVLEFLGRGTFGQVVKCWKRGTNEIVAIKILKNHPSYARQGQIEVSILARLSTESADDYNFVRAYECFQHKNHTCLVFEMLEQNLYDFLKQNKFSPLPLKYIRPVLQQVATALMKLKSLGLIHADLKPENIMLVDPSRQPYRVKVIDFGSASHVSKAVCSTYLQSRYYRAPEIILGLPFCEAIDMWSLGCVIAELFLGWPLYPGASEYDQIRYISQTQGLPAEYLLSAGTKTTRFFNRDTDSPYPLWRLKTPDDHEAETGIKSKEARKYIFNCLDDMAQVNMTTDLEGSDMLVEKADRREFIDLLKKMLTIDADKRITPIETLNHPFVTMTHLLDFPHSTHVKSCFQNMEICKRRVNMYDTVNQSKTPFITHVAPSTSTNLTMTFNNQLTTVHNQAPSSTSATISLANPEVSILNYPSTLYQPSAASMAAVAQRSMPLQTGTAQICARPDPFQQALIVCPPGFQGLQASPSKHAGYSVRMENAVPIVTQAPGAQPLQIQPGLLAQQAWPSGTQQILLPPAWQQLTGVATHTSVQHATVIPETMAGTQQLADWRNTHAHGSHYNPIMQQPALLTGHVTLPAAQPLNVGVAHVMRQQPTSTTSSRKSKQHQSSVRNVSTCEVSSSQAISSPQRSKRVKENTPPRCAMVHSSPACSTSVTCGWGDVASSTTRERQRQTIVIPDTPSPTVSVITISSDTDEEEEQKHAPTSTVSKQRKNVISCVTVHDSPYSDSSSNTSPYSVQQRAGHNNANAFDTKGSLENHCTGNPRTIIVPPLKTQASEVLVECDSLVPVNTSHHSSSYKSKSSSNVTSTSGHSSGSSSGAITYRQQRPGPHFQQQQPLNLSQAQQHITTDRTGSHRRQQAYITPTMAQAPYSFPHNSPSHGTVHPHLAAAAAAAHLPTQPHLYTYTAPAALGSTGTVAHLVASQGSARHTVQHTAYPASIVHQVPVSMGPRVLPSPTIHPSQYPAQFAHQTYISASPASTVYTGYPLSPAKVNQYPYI
Chain of JNK3 (P53779 whole entry, species assumed): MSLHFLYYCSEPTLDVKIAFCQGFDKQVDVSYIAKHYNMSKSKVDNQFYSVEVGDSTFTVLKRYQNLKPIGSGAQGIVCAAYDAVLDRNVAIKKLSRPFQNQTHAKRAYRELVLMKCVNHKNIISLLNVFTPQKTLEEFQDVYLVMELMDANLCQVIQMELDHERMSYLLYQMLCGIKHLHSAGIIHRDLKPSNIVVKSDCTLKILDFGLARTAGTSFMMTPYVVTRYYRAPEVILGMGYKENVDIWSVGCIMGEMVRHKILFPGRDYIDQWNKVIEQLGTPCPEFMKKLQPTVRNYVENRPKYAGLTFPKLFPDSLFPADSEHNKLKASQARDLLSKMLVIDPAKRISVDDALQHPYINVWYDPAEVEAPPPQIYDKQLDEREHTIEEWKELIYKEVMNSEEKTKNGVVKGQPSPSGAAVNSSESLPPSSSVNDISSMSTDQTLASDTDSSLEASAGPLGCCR

Regarding `CC(=O)Nc1nc2cc(O)ccc2s1` [Compound 01-66, N-(5-hydroxybenzo[d]thiazol-2-yl)acetamide], the remaining activity at 100 µM in assay [1] turned out to be 31%; in assay [2] it was 30%; in assay [3], 104%; in assay [4], 31%; in [5] it was 65%; in assay [6], 57%. Moreover, the remaining activity at 100 µM was determined as 30% in assay [7]; 46% in assay [8]; 76% in [9]; 37% in assay [10]; 5% in assay [11]; 52% in assay [12]. The remaining activity at 100 µM was 77% in assay [13] and 20% in assay [14]. Also, the “residual kinase activity, VEG-FR” value in assay [15] is listed as 24.

As for `CC(=O)Nc1nc2ccc(O)cc2s1` [Compound 01-71], the remaining activity at 100 µM in assay [1] (setting [16]) came out at 35%; in [2] (setting [16]), 11%; in assay [3] (setting [16]), 83%; in assay [4] (setting [16]), 17%; in [5] (setting [16]), 43%; in assay [6] (setting [16]), 42%. Besides, the remaining activity at 100 µM came to 37% in [7] (setting [16]); 84% in assay [8] (setting [16]); 75% in assay [9] (setting [16]); 66% in assay [10] (setting [16]); 20% in assay [11] (setting [16]); 41% in assay [12] (setting [16]). In addition, the results for the remaining activity at 100 µM in assay [13] (setting [16]) and in assay [14] (setting [16]) were 33% and 14%, respectively. In [15], the “residual kinase activity, VEG-FR” value was 9.

With `CC(=O)Nc1nc2ccc(C(F)(F)F)cc2s1` [Compound 01-90], the remaining activity at 100 µM in assay [1] (setting [16]) was determined as 80%; in [2] (setting [16]), 83%; in [3] (setting [16]), 102%; in [4] (setting [16]), 43%; in [5] (setting [16]), 73%; in assay [6] (setting [16]), 45%. Further, the remaining activity at 100 µM came to 119% in [7] (setting [16]); 101% in assay [8] (setting [16]); 103% in assay [9] (setting [16]); 76% in assay [10] (setting [16]); 8% in [11] (setting [16]); 46% in assay [12] (setting [16]). Further, the remaining activity at 100 µM in assay [13] (setting [16]) was determined as 69%; in [14] (setting [16]) it was 16%. Further, the “residual kinase activity, VEG-FR” value in assay [15] amounted to 8.

Take `CC(=O)Nc1nc2ccc(C#N)cc2s1` [Compound 01-94]: the remaining activity at 100 µM in [1] (setting [16]) came out at 34%; in assay [2] (setting [16]), 17%; in [3] (setting [16]) it was 91%; in assay [4] (setting [16]) it was 30%; in assay [5] (setting [16]) it was 33%; in assay [6] (setting [16]), 87%. Moreover, the remaining activity at 100 µM in [7] (setting [16]) worked out at 97%; in [8] (setting [16]) it was 82%; in [9] (setting [16]) it was 98%; in assay [10] (setting [16]), 53%; in [11] (setting [16]), 9%; in assay [12] (setting [16]), 35%. Besides, the remaining activity at 100 µM worked out at 40% in assay [13] (setting [16]) and 23% in assay [14] (setting [16]). The “residual kinase activity, VEG-FR” value in assay [15] is listed as 11.

With `CC(=O)Nc1ccc(C(=O)Nc2nc3cc(O)ccc3s2)cc1` [MS:LY-2-87], the “residual kinase activity, MKK1” value in assay [1] (setting [16]) is listed as 69. Moreover, the “residual kinase activity, ERK2” value in assay [3] (setting [16]) turned out to be 81. Also, the “residual kinase activity, PKD1” value in [7] (setting [16]) is given as 52. Moreover, the “residual kinase activity, p38g MAPK” value in assay [8] (setting [16]) turned out to be 93. For the same molecule, the “residual kinase activity, JNK3” value in assay [10] (setting [16]) turned out to be 66. For the same molecule, in assay [12] (setting [16]), the “residual kinase activity, STK33” value came out at 51. Also, in [13] (setting [16]), the “residual kinase activity, SGK1” value came to 43.

`CC(=O)Nc1cccc(C(=O)Nc2nc3cc(O)ccc3s2)c1` [MS:LY-2-89]: in [1] (setting [16]), the “residual kinase activity, MKK1” value is recorded as 56. Moreover, the “residual kinase activity, ERK2” value in assay [3] (setting [16]) was 68. The “residual kinase activity, PKD1” value in assay [7] (setting [16]) is 22. Besides, the “residual kinase activity, p38g MAPK” value in assay [8] (setting [16]) came to 64. In addition, the “residual kinase activity, JNK3” value in assay [10] (setting [16]) is 36. Also, the “residual kinase activity, STK33” value in assay [12] (setting [16]) was 37. Also, in [13] (setting [16]), the “residual kinase activity, SGK1” value amounted to 28.
